Experiments:
[1] = tested on: ornithine decarboxylase (ODC); assay: inhibition of TPA-induced ornithine decarboxylase (ODC) activity (retinoic acid-like activity; essentially method of Verma & Boutwell); format: in vivo
Text: The retionic acid like activity of these compounds was confirmed through the classic measure of retionic acid activity involving the effects of retionic acid on ornithine decarboxylase. The original work on the correlation between retinoic acid and decrease in cell proliferation was done by Verma & Boutwell, Cancer Research, 1977, 37, 2196-2201. That reference discloses that ornithine decarboxylase (ODC) activity increased precedent to polyamine biosynthesis. It has been established elsewhere that increases in polyamine synthesis can be correlated or associated with cellular proliferation. Thus, if ODC activity could be inhibited, cell hyperproliferation could be modulated.
By way of example of retinoic acid-like activity it is noted that in the assay conducted essentially in accordance with the method of Verma & Boutwell, ibid, the following examples of the preferred compounds of the present invention (Compounds 1, 2 and 3) elicited the following percent inhibition of TPA-induced ODC activity at the given calculations: […]

[2] = tested on: ornithine decarboxylase (ODC); settings: literature background, cited from earlier work

CCOC(=O)c1ccc(OC(=O)c2ccc3c(c2)OC(C)(C)CC3(C)C)cc1 [Compound 1, Ethyl 4-(2,2,4,4-tetramethyl-7-chromanoyloxy) benzoate]
% inhibition of TPA-induced ODC activity ([1]; Dose 30 nmol): 100%

CC1(C)CC(C)(C)c2ccc(C(=O)Oc3ccc(C(=O)OCc4ccccc4)cc3)cc2O1 [Compound 2, Benzyl 4-(2,2,4,4,tetramethyl-7-chromanoyloxy)benzoate]
% inhibition of TPA-induced ODC activity ([1]; Dose 300 nmol): 84%

CC1(C)CC(C)(C)c2ccc(C(=O)Oc3ccc(C(=O)O)cc3)cc2O1 [Compound 3, 4-(2,2,4,4-tetramethyl-7-chromanoyloxy) benzoic acid]
% inhibition of TPA-induced ODC activity ([1]; Dose 30 nmol): 86%

CC1=C(/C=C/C(C)=C/C=C/C(C)=C/C(=O)O)C(C)(C)CCC1 [Retinoic acid]
inhibition of TPA induction of ODC activity (in words) ([2]; retinoic acid): inhibits this induction of ODC activity by TPA

CCCCCCCCCCCCCC(=O)O[C@@H]1[C@@H](C)[C@@]2(O)[C@@H](C=C(CO)C[C@]3(O)C(=O)C(C)=C[C@@H]23)[C@@H]2C(C)(C)[C@]12OC(C)=O [TPA, 12-0-tetradecanoyl-phorbol-13-acetate]
induction of ODC activity (in words) ([2]; TPA): induces ODC activity
